# According to patent US20100184676A1, “USE OF A PEPTIDE AS A THERAPEUTIC AGENT” (priority 2007, published 2010):
# Columns and labels:
# CEM-SS cells = test: Cytotoxicity (MTS cell viability) in HIV-1 experiments; conditions: peptide 10 micrograms per ml
# HIV-1IIIB = test: HIV-1 antiviral assay (CPE reduction, MTS) in CEM-SS cells; assay type: cell-based; conditions: peptide 10 micrograms per ml, 6 days post-infection
# [1] = test system: Human Peripheral Blood Mononuclear Cells (PBMC); test: B cell proliferation assay (SAC plus Interleukin-2, 3H-thymidine); assay type: cell-based; conditions: peptide 10 micrograms per ml, 3H-thymidine incorporation
# Pseudomonas aeruginosa = assay type: cell-based; conditions: 5 micrograms per ml
# [2] = Cell viability (dye uptake) in HBV assay; assay type: cell-based; conditions: human, HepG2-2.2.15 cells, peptide 10 micrograms per ml
# Protocol: (§1) HepG2-2.2.15 cells were plated in 96-well microtiter plates. After 16-24 hours the confluent monolayer of HepG2-2.2.15 cells was washed and the medium was replaced with complete medium containing test peptide—10 micrograms per ml—in duplicate. Lamivudine (3TC) was used as the positive control, while media alone was added to the cells as a negative control (virus control). Three days later the culture medium was replaced with fresh medium containing the peptide. Six days following the initial administration of the peptide, the cell culture supernatants was collected, treated with pronase and DNAse and then used in a real-time quantitative TaqMan PCR assay. The PCR-amplified HBV DNA was detected in real-time by monitoring increases in fluorescence signals that result from the exonucleolytic degradation of a quenched fluorescence probe molecule that hybridizes to the amplified HBV DNA. For each PCR amplification, a standard curve was simultaneously generated using dilutions of purified HBV DNA. Antiviral activity was calculated from the reduction in HBV DNA levels (% virus control). A novel dye uptake assay was then employed to measure cell viability, which is used to calculate toxicity (% cell control).
# A549 cells [3] = test: Propidium iodide cell cycle assay; assay type: cell-based, human; conditions: 24 hours, peptide 10 micrograms per ml, FACS
# Excerpt: Disregulation of the cell cycle components may lead to tumor formation.
# [4] = test system: hepatitis B virus (HBV) ayw strain; test: HBV experimental assay system (secreted HBV DNA, TaqMan PCR); assay type: cell-based; conditions: peptide 10 micrograms per ml; six days; HBV DNA in supernatant
# Protocol: HepG2-2.2.15 is a stable cell line containing the hepatitis B virus (HBV) ayw strain genome (ATCC Cat. No. CRL-11997). Antiviral compounds blocking any late step of viral replication such as transcription, translation, pregenome encapsidation, reverse transcription, particle assembly and release can be identified and characterized using this cell line.
# as §1, with “Lamivudine (3TC) was used as the positive control, while media alone was added to the cells as a negative control (virus control).” left out, “A novel dye uptake assay was then employed to measure cell viability, which is used to calculate toxicity (% cell control).” left out
# HUVEC = test: Endothelial tube formation assay; assay type: cell-based, human; conditions: peptide 10 micrograms per ml, 20 hours, average tubule length
# Excerpt: Positive control was vehicle only.
# TNF alpha = TNF alpha production assay (LPS-stimulated macrophages, ELISA); assay type: cell-based, human; conditions: macrophages from PBMC, peptide 10 micrograms per ml, lipopolysaccharide 200 ng/ml, overnight
# Excerpt: Not stimulated macrophages served as negative background control.
# HCMV strain AD169 = test: HCMV plaque reduction assay in MRC-5 cells; conditions: HCMV AD169 in MRC-5 cells; peptide 10 micrograms per ml; 7-10 days
# in vitro [5] = conditions: human, CEM-SS cells
# Streptococcus pneumoniae = assay type: cell-based; conditions: 5 micrograms per ml
# A549 cells [6] = test: Apoptosis induction assay (Annexin-5); assay type: cell-based, human; conditions: 24 hours
# spleen cells = test: Th1/Th2 cytokine profiling assay; assay type: cell-based, Balb/c mice; conditions: Ovalbumin restimulation; peptide 10 micrograms per ml; 72 hours
# [7] = test system: Human Peripheral Blood Mononuclear Cells (PBMC); test: T cell proliferation assay (PHA, 3H-thymidine); assay type: cell-based; conditions: peptide 10 micrograms per ml, 3H-thymidine incorporation
# RAW 264.7 cells = test: Phagocytosis assay (Fluorescein-labeled Escherichia coli); assay type: cell-based, mouse; conditions: peptide 10 micrograms per ml, flow cytometry
# A549 cells [8] = test: Apoptosis prevention assay (C2 ceramide, Annexin-5); assay type: cell-based, human; conditions: A549 cells pretreated 30 min, peptide 10 micrograms per ml
# in vitro [9] = conditions: human, MRC-5 cells
# [10] = test system: Primary Human endothelial cells (HUVEC); test: Endothelial cell migration assay; assay type: cell-based; conditions: peptide 10 micrograms per ml, 22 hours
# MRSA = conditions: 5 micrograms per ml
# MRC-5 cells = conditions: human, 6 days
# HepG2-2.2.15 cells = test: Cell viability (dye uptake) in HBV assay; assay type: cell-based; conditions: peptide 10 micrograms per ml
# Protocol: as §1
structure (smiles),measurement,setting,value
Cc1cn([C@H]2C[C@H](N=[N+]=[N-])[C@@H](CO)O2)c(=O)[nH]c1=O [AZT],% Cell viability,CEM-SS cells,97%
same,% CPE reduction in HIV-1 infected CEM-SS cells,HIV-1IIIB,99%
"CC(C)(C)NC(=O)[C@@H]1CN(Cc2cccnc2)CCN1C[C@@H](O)C[C@@H](Cc1ccccc1)C(=O)N[C@H]1c2ccccc2C[C@H]1O [Indinavir, indinavir]",% CPE reduction in HIV-1 infected CEM-SS cells,HIV-1IIIB,100%
CC[C@H](C)[C@H](NC(=O)[C@H](CCC(N)=O)NC(=O)[C@H](Cc1c[nH]cn1)NC(=O)[C@H](C)NC(=O)[C@H](CC(C)C)NC(=O)[C@H](CCCCN)NC(=O)[C@H](CCC(N)=O)NC(=O)[C@@H](NC(=O)[C@@H](NC(=O)[C@@H]1CSSC[C@H](NC(=O)CNC(=O)[C@H](Cc2ccccc2)NC(=O)[C@H](CO)NC(=O)[C@H](CCCNC(=N)N)NC(=O)[C@H](CC(C)C)NC(=O)CNC(=O)[C@H](CCC(N)=O)NC(=O)[C@H](Cc2ccccc2)NC(=O)[C@H](CC(N)=O)NC(=O)[C@H](CC(N)=O)NC(=O)[C@H](CCSC)NC(=O)[C@H](CO)NC(=O)[C@H](CCC(N)=O)NC(=O)[C@H](CCCNC(=N)N)NC(=O)[C@@H](N)Cc2ccc(O)cc2)C(=O)N[C@@H](CCCNC(=N)N)C(=O)N[C@@H](Cc2ccccc2)C(=O)NCC(=O)N[C@@H]([C@@H](C)O)C(=O)N1)[C@@H](C)O)C(C)C)C(=O)N[C@@H](Cc1ccc(O)cc1)C(=O)N[C@@H](CCC(N)=O)C(=O)N[C@@H](Cc1ccccc1)C(=O)N[C@H](C(=O)N[C@@H](CC(=O)O)C(=O)N[C@@H](CCCCN)C(=O)N[C@@H](CC(=O)O)C(=O)N[C@@H](CCCCN)C(=O)N[C@@H](CC(=O)O)C(=O)N[C@@H](CC(N)=O)C(=O)N[C@H](C(=O)N[C@@H](C)C(=O)N1CCC[C@H]1C(=O)N[C@@H](CCCNC(=N)N)C(=O)N[C@@H](CO)C(=O)N[C@@H](CCCCN)C(=O)N[C@H](C(=O)N[C@@H](CO)C(=O)N1CCC[C@H]1C(=O)N[C@@H](CCC(N)=O)C(=O)NCC(=O)N[C@@H](Cc1ccc(O)cc1)C(N)=O)[C@@H](C)CC)C(C)C)[C@@H](C)O [Adrenomedullin],% of SAC/IL2 induced control,[1],111.0%
same,% inhibition,Pseudomonas aeruginosa,0.0%
same,"viability at 144 h, 10 micrograms per ml",[2],100%
same,Cell cycle analysis G0/G1,A549 cells [3],57.8
same,Cell cycle analysis G2/M,A549 cells [3],9.5
same,Cell cycle analysis S,A549 cells [3],32.7
same,% inhibition of HBV replication in HEP G2 cells,[4],0.0%
same,% inhibition of tube formation,HUVEC,26%
same,% of LPS induction,TNF alpha,100.9%
same,% plaque reduction,HCMV strain AD169,0.0%
same,viability at 10 micrograms per ml,in vitro [5],92.9%
same,% inhibition,Streptococcus pneumoniae,0.0%
same,% of induction,A549 cells [6],1.5%
same,IFNγ spleen cells; TH1 response (% of control),spleen cells,24.5 % of control
same,IL-2 spleen cells (% of control),spleen cells,0.0 % of control
same,IL-4 spleen cells; TH2 response (% of control),spleen cells,0.0 % of control
same,IL-5 spleen cells; TH2 response (% of control),spleen cells,28.1 % of control
same,TNF-a spleen cells; TH1 response (% of control),spleen cells,66.7 % of control
same,% of PHA induced control,[7],107.1%
same,% of control phagocytosis,RAW 264.7 cells,108.8%
same,% prevention of ceramide induced apoptosis,A549 cells [8],0.0%
same,viability at 144 h,in vitro [9],100%
same,% inhibition of migration,[10],−34%
same,% CPE reduction in HIV-1 infected CEM-SS cells,HIV-1IIIB,0.0%
same,% inhibition,MRSA,0.0%
"Nc1nc(O)c2ncn(COC(CO)CO)c2n1 [Ganciclovir, reference compound]",% plaque reduction,HCMV strain AD169,100%
same,% Cell viability,MRC-5 cells,100%
"Nc1ccn([C@@H]2CS[C@H](CO)O2)c(=O)n1 [3TC, Lamivudine, reference compound]",% Cell viability,HepG2-2.2.15 cells,95.8%
